Reference: PubChem BioAssay (NCI)
Where “and” joins values, the source holds several entries; their conditions need not be identical. Equal values may be shown once.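 Cells were grown in 96-well plates and exposed to each compound for 48 hours at five concentrations; endpoints were interpolated linearly between bracketing concentrations, or set to the highest concentration if not reached. GI50: concentration for 50% inhibition of growth. Definition used: TGI = concentration required for complete inhibition of growth.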

Legend:
Assay in all cases: NCI-60 cell line screen, 48 h
MCF7 breast = system: MCF7 breast
MDA-MB-231 breast = system: MDA-MB-231 breast
MDA-MB-435 = system: MDA-MB-435
PC-3 prostate = system: PC-3 prostate
HS 578T breast = system: HS 578T breast
HOP-18 NSCLC = system: HOP-18 NSCLC
LXFL 529 NSCLC = system: LXFL 529 NSCLC
M19-MEL melanoma = system: M19-MEL melanoma

Row | SMILES | GI50 (MCF7 breast) | TGI (MCF7 breast) | GI50 (MDA-MB-231 breast) | TGI (MDA-MB-231 breast) | GI50 (MDA-MB-435) | TGI (MDA-MB-435) | GI50 (PC-3 prostate) | TGI (PC-3 prostate) [µM] | GI50 (HS 578T breast) | TGI (HS 578T breast) | TGI (HOP-18 NSCLC) [µM] | TGI (LXFL 529 NSCLC) [µM] | TGI (M19-MEL melanoma) [µM]
1 | COc1ccc(-c2ccc(-c3ccc(C(=N)N)o3)o2)cc1 | 0.325 µM | 1.57 µM | 1.9 µM | 4.28 µM | 0.293 µM | 1.12 µM | 1.86 µM | 7.07 | 4.33 µM | 18.4 µM | – | – | –
2 | O=C1c2ccccc2-c2c1c1ccccc1c(=O)n2CCCn1ccnc1 | 0.902 µM | > 100 µM | 2.08 µM | 5.8 µM | 2.74 µM | 10.7 µM | 2.04 µM | > 100 | 7.92 µM | 94.7 µM | – | – | –
3 | CCNC(=O)O[C@H]1CN[C@H](C#Cc2cc3ncnc(Nc4ccc(OCc5cccc(F)c5)c(Cl)c4)c3s2)C1 | 8.95 µM | > 25 µM | 4.35 µM | > 16 µM | 9.27 µM | > 25 µM | 5.93 µM | > 25 | 4.82 µM | 24.6 µM | – | – | –
4 | Cc1cnc(C(=O)Nc2nc3ccc(S(=O)(=O)Nc4ccc(C5(C(F)(F)F)CC5)cc4)cc3[nH]2)cn1 | 0.287 µM | 5.68 µM | 1.5 µM | 15.6 µM | 0.0571 µM | 0.238 µM | 0.311 µM | 4.39 | 0.367 µM | 6.54 µM | – | – | –
5 | OCC#Cc1ccccc1C#CCCCCCC#Cc1ccccc1C#CCO | 18.5 µM | 40.2 µM | 17.2 µM | 32.6 µM | 18.8 µM | 36.1 µM | 18.1 µM | 38.8 | 21.7 µM | 43.7 µM | – | – | –
6 | CC12CCC(Br)C(C)(C)C1CC=C1C(=O)OCC1O2 (centres undefined) | – | 22.7 µM | – | 31.5 µM | – | 35.6 µM | – | 24.2 | – | 55 µM | – | – | –
7 | C=C1C(=O)O[C@H]2[C@H]1CC/C(Cn1cc(-c3ccccc3C(F)(F)F)nn1)=C\CC[C@@]1(C)O[C@@H]21 | – | – | 1.64 µM | 3.75 µM | 2.18 µM | 7.11 µM | 4.32 µM | 15.3 | 3.57 µM | 26.7 µM | – | – | –
8 | Oc1ccc2oc3ncc(Br)c(-c4ccccc4)c3c2c1 | > 100 µM | > 100 µM | – | – | > 100 µM | > 100 µM | > 100 µM | > 100 | – | – | – | – | –
9 | COc1cccc(/C=N/C(/N=C/c2cccc(OC)c2O)c2cccc(OC)c2O)c1O | – | 62.8 µM | – | > 100 µM | – | > 100 µM | – | > 100 | – | 61.5 µM | – | – | –
10 | O=c1c(-c2ccccc2)coc2cc(OC/C(=N/O)c3ccccc3)ccc12 | 23.3 µM | 47.1 µM | 18.2 µM | 43.7 µM | 20.5 µM | > 100 µM | 17.4 µM | 46 | 34.4 µM | 86 µM | – | – | –
11 | Cc1ccc(O)c(NC(=O)c2ccc(CNc3ccnc(C(F)(F)F)c3)cc2)c1 | 4.06 µM | 38.9 µM | 3.36 µM | 47.2 µM | 4.26 µM | 22.1 µM | 9.5 µM | 38 | 11.2 µM | 42.8 µM | – | – | –
12 | COc1cc(-c2nc(SCCC(C)C)nc(Nc3ccc(S(N)(=O)=O)cc3)c2C#N)cc(OC)c1OC | 3.19 µM | > 100 µM | 2.19 µM | 7.8 µM | 3.15 µM | > 100 µM | 2.72 µM | > 100 | 2.21 µM | 7.77 µM | – | – | –
13 | CCN(CC)c1ccc(C(=O)c2ccc(N(CC)CC)cc2)cc1 | 0.416 µM | > 74.4 µM | 1.23 µM | 28.2 µM | 0.0694 µM | 0.43 µM | 0.452 µM | > 100 | 0.237 µM | 1 µM | – | – | –
14 | CSc1nc(SC)c2c(CO)c(Br)n(Cc3ccccc3)c2n1 | – | > 100 µM | – | 36.5 µM | – | > 100 µM | – | > 100 | – | 58.9 µM | – | – | –
15 | COc1cc2c(cc1OC)C13CCN4CC5CCOC6CC(=O)N2C1C6C5CC43 (centres undefined) | – | > 100 µM | – | > 100 µM | – | > 100 µM | – | > 100 | – | > 100 µM | – | – | –
16 | CN(C)CCCNC(=O)c1cc(NC(=O)c2cc(NC(=O)CCNS(=O)(=O)c3ccc4c(c3)C(=O)c3ccccc3C4=O)cn2C)cn1C | > 100 µM | > 100 µM | > 100 µM | > 100 µM | > 100 µM | > 100 µM | > 100 µM | > 100 | > 100 µM | > 100 µM | – | – | –
17 | Clc1ccc(C(n2cc(Br)cn2)n2cc(Br)cn2)cc1 | – | – | – | – | – | – | – | – | – | – | 34.4 | 29.5 | 32.6
18 | O=C1C(=O)c2cccnc2-c2ncccc21 | 0.232 µM | 0.554 µM | 0.14 µM | 0.503 µM | 0.263 µM | 1.02 µM | 0.208 µM | 1.27 | 0.244 µM | 1.08 µM | – | – | –
19 | CCN1CCN(CC(=O)N2c3cccc4cccc(c34)N(C(=O)CN3CCN(CC)CC3)C2c2cn(-c3ccccc3)nc2-c2cccc([N+](=O)[O-])c2)CC1 | 1.62 µM | 3.24 µM | 1.42 µM | 2.88 µM | 1.86 µM | 3.54 µM | 1.48 µM | 3.14 | 1.81 µM | 4.17 µM | – | – | –
20 | O=C1CCc2c(sc3[nH]c(=S)n(Cc4ccc(Cl)cc4)c(=O)c23)C1 | 2.22 µM | > 38.6 µM | 0.379 µM | 1.68 µM | 1.44 µM | 8.33 µM | 0.309 µM | > 35.8 | 0.46 µM | > 100 µM | – | – | –
21 | O=c1c2cc(Cl)ccc2sc2cccc(Cl)c12 | – | – | – | – | – | – | – | – | – | – | – | > 100 | > 100
22 | Cc1cn(-c2cc(NC(=O)c3ccc(C)c(Nc4nccc(-c5cccnc5)n4)c3)cc(C(F)(F)F)c2)cn1 | 2.49 µM and 2.35 µM | 7.39 µM and 7.55 µM | 3.68 µM and 1.81 µM | > 10 µM and 14.3 µM | 1.79 µM and 1.57 µM | 4.65 µM and 4.76 µM | 3.19 µM and 3.23 µM | > 10 | 5.73 µM and 2.52 µM | > 10 µM and 6.8 µM | – | – | –
23 | O=C(O)C1CC(O)CN1 (centres undefined) | – | > 100 µM | – | > 100 µM | – | > 100 µM | – | > 100 | – | > 100 µM | – | – | –
